Measured values reported in US20100137309A1, “FUNGICIDES PHENYL-PYRIMIDNYL-AMINO DERIVATIVES” (priority 2007, published 2010).

Test system: not listed separately
Test: Log p determination of the compounds of Table A
Conditions: not given

| logP | SMILES |
| --- | --- |
| 3.19 | CCN(CC)C(=S)c1cc(-c2ccnc(Nc3cccc(Cl)c3)n2)ccn1 [Compound A391, 4-{2-[(3-chlorophenyl)amino]pyrimidin-4-yl}-N,N-diethylpyridine-2-carbothioamide] |

Test system: not listed separately
Test: Log p of the compounds of Table A
Conditions: not given

| SMILES | Log p |
| --- | --- |
| CC(C)N(C)C(=O)c1cc(-c2ccnc(Nc3ccc(N4CCCC4=O)cc3)n2)ccn1 [Compound A325] | 2.04 |

Test system: not listed separately
Test: Log p of the compounds of Table A
Conditions: not given
Remark: another data set of the same source

| logP | SMILES |
| --- | --- |
| 2.5 | CN(C)C(=O)c1cc(-c2ccnc(Nc3cccc(Cl)c3)n2)ccn1 [Compound A76, 4-{2-[(3-chlorophenyl)amino]pyrimidin-4-yl}-N,N-dimethylpyridine-2-carboxamide] |
| 3.19 | CCN(CC)C(=O)c1cc(-c2ccnc(Nc3cccc(Cl)c3)n2)ccn1 [Compound A77, 4-{2-[(3-chlorophenyl)amino]pyrimidin-4-yl}-N,N-diethylpyridine-2-carboxamide] |
| 4.46 | CON=C(C)c1cc(-c2ccnc(Nc3cccc(Cl)c3)n2)ccn1 [Compound A93, N-(3-chlorophenyl)-4-{2-[-N-methoxyethanimidoyl]pyridin-4-yl}pyrimidin-2-amine] |
| 2.44 | CC(=NNCCC#N)c1cc(-c2ccnc(Nc3cccc(Cl)c3)n2)ccn1 [Compound A108, 3-{2-[1-(4-{2-[(3-chlorophenyl)amino]pyrimidin-4-yl}pyridin-2-yl)ethylidene]hydrazinyl}propanenitrile] |
| 3.5 | CC(=O)c1cc(-c2ccnc(Nc3cccc(Cl)c3)n2)ccn1 [Compound A110, 1-(4-{2-[(3-chlorophenyl)amino]pyrimidin-4-yl}pyridin-2-yl)ethanone] |

Test system: not listed separately
Test: Log p of the compounds of Table A
Conditions: not given
Remark: another data set of the same source

| SMILES | Log p |
| --- | --- |
| COCCN(C)C(=O)c1cc(-c2ccnc(Nc3cc(F)ccc3F)n2)ccn1 [Compound A230] | 2.52 |
| CCN(C)C(=O)c1cc(-c2ccnc(Nc3cc(Cl)ccc3F)n2)ccn1 [Compound A232] | 2.94 |
| CCCN(CC)C(=O)c1cc(-c2ccnc(Nc3cc(Cl)ccc3F)n2)ccn1 [Compound A234] | 3.69 |
| CCCN(CC1CC1)C(=O)c1cc(-c2ccnc(Nc3cc(Cl)ccc3F)n2)ccn1 [Compound A242] | 4.20 |
| CCCCN(C)C(=O)c1cc(-c2ccnc(Nc3cccc(C(C)C)c3)n2)ccn1 [Compound A262] | 4.04 |

Test system: Sphaerotheca fuliginea
Test: In vivo test on Sphaerotheca fuliginea (cucurbits powdery mildew), DMF/emulsifier preparation (Example B)
Conditions: 500 ppm; young cucurbit plants sprayed preventively one day before inoculation; grading 7 days after contamination
Protocol: In Vivo Test on Sphaerotheca fuliginea (Cucurbits Powdery Mildew) To produce a suitable preparation of active compound, 1 part by weight of active compound is mixed with 49 parts by weight of solvent (N,N-dimethylformamide) and 1 part by weight of emulsifier (alkylarylpolyglycolether), and the concentrate is diluted with water to the desired concentration. To test for preventive activity, young cucurbit plants are sprayed with the preparation of active compound at the stated rate of application. One day after this treatment, the plants are inoculated with an aqueous spore suspension of Sphaerotheca fuliginea. […] Grading is carried out 7 days after the contamination, in comparison with the control plants. […] A16.

| SMILES | good protection |
| --- | --- |
| COCCOC(=O)c1cc(-c2ccnc(Nc3cccc(OC)c3)n2)ccn1 [Compound A16] | at least 70% |

Test system: not listed separately
Test: Log p of the compounds of Table A
Conditions: not given
Remark: another data set of the same source

| logP | SMILES |
| --- | --- |
| 2.98 | O=C(NCCCN1CCCCCC1=O)c1cc(-c2ccnc(Nc3cccc(Cl)c3)n2)ccn1 [Compound A1, 4-{2-[(3-chlorophenyl)amino]pyrimidin-4-yl}-N-[3-(2-oxoazepan-1-yl)propyl]pyridine-2-carboxamide] |
| 4.7 | CC(C)CCNC(=O)c1cc(-c2ccnc(Nc3cccc(Cl)c3)n2)ccn1 [Compound A19, 4-{2-[(3-chlorophenyl)amino]pyrimidin-4-yl}-N-(3-methylbutyl)pyridine-2-carboxamide] |

Same assay, conditions: Table A

| SMILES | Log p |
| --- | --- |
| CC(CN(C)C)NC(=O)c1cc(-c2ccnc(Nc3cccc(Cl)c3)n2)ccn1 (stereo not shown) [Compound A38] | 1.81 |
| COCCCNC(=O)c1cc(-c2ccnc(Nc3cccc(Cl)c3)n2)ccn1 [Compound A39] | 3.31 |
| O=C(NC1CCCC1)c1cc(-c2ccnc(Nc3cccc(Cl)c3)n2)ccn1 [Compound A40] | 4.48 |
| CCC(CC)NC(=O)c1cc(-c2ccnc(Nc3cccc(Cl)c3)n2)ccn1 [Compound A44] | 4.72 |
| CCC(COC)NC(=O)c1cc(-c2ccnc(Nc3cccc(Cl)c3)n2)ccn1 (stereo not shown) [Compound A45] | 4.02 |
| CCC(C)NC(=O)c1cc(-c2ccnc(Nc3cccc(Cl)c3)n2)ccn1 (stereo not shown) [Compound A46] | 4.3 |
| O=C(NC1CCC1)c1cc(-c2ccnc(Nc3cccc(Cl)c3)n2)ccn1 [Compound A47] | 4.1 |
| CCCNC(=O)c1cc(-c2ccnc(Nc3cccc(Cl)c3)n2)ccn1 [Compound A56] | 3.8 |
| CC(C)NC(=O)c1cc(-c2ccnc(Nc3cccc(Cl)c3)n2)ccn1 [Compound A57] | 3.83 |
| CCCCNC(=O)c1cc(-c2ccnc(Nc3cccc(Cl)c3)n2)ccn1 [Compound A58] | 4.31 |
| CNC(=O)c1cc(-c2ccnc(Nc3cccc(Cl)c3)n2)ccn1 [Compound A59] | 2.94 |
| O=C(NC1CCS(=O)(=O)C1)c1cc(-c2ccnc(Nc3cccc(Cl)c3)n2)ccn1 (stereo not shown) [Compound A60] | 2.8 |
| CCOC1CCC(NC(=O)c2cc(-c3ccnc(Nc4cccc(Cl)c4)n3)ccn2)CC1 (stereo not shown) [Compound A61] | 4.54 |
